Results taken from paper PMC11079024, “Identification of a family of species-selective complex I inhibitors as potential anthelmintics” (Nature Communications, 2024).
Where two headings read alike, the source gives them in different places.

Key:
[1] = molecular target: B. taurus (heart) complex I (Bos taurus, UniProt P03887+P17694+P42026); assay: biochemical; format: biochemical; conditions: for IC50: B. taurus heart mitochondria, read-out: B. taurus Complex I IC50; for Log IC50 B. taurus complex I: log10 of IC50 in µM, B. taurus mitochondria; for activity at 0.0001 µM / activity at 0.0005 µM / activity at 0.001 µM / activity at 0.0025 µM / activity at 0.005 µM / activity at 0.013 µM / activity at 0.025 µM / activity at 0.063 µM / activity at 0.125 µM / activity at 0.313 µM / activity at 0.625 µM / activity at 1.5 µM / activity at 3 µM / activity at 15 µM / activity at 37.5 µM / activity at 75 µM: read-out: B. taurus mitochondrial complex I activity
Chain of B. taurus (heart) complex I (P03887 whole entry): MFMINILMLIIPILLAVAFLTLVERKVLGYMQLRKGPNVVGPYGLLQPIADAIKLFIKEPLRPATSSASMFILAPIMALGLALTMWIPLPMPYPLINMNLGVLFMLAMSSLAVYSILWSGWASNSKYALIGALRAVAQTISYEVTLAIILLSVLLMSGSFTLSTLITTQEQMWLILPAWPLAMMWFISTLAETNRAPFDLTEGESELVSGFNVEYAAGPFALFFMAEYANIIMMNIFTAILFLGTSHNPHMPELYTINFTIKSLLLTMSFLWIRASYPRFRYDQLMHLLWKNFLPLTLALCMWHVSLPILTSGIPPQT
Chain of B. taurus (heart) complex I (P17694 34-463): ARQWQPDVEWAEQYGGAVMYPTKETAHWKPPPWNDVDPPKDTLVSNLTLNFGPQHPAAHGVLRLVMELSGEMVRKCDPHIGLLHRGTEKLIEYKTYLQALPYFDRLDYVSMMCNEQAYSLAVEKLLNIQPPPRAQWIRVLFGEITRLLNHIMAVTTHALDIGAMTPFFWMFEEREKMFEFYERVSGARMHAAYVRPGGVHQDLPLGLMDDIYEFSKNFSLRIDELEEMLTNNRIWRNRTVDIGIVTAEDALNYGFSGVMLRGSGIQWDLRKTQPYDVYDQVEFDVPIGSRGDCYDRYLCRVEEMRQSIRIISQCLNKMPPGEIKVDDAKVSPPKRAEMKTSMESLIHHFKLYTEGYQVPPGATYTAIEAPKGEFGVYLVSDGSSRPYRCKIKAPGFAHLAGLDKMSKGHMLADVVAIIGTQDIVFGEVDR
Chain of B. taurus (heart) complex I (P42026 38-216): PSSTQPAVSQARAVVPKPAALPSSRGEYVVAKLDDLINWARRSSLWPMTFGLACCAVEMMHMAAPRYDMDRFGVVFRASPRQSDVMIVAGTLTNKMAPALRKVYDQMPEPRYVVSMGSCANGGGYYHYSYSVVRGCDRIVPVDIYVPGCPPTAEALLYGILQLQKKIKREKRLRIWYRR
In short: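 Complex I activity followed as DCIP reduction (600 nm, 30 s reads, 15 min) with 80 μM NADH and 60 μM decylubiquinone in 25 mM KPi pH 7.5 containing 2 μM antimycin A and 2 mM KCN. Freeze-thawed mouse or bovine heart mitochondria at 0.2 mg/mL; initial-rate percent of solvent control, single-point 100 μM or dose-response.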

[2] = molecular target: C. elegans (N2) complex I (NADH:ubiquinone oxidoreductase) (Caenorhabditis elegans, UniProt P24887+Q93873+Q94360); assay: biochemical; format: biochemical; conditions: for Log IC50 C. elegans complex I: log10 of IC50 in µM, C. elegans mitochondria; for activity at 0.0001 µM / activity at 0.0005 µM / activity at 0.001 µM / activity at 0.0025 µM / activity at 0.005 µM / activity at 0.013 µM / activity at 0.025 µM / activity at 0.063 µM / activity at 0.125 µM / activity at 0.313 µM / activity at 0.625 µM / activity at 1.5 µM / activity at 3 µM / activity at 15 µM / activity at 37.5 µM / activity at 75 µM: read-out: C. elegans mitochondrial complex I activity
Chain of C. elegans (N2) complex I (NADH:ubiquinone oxidoreductase) (Q94360 17-199): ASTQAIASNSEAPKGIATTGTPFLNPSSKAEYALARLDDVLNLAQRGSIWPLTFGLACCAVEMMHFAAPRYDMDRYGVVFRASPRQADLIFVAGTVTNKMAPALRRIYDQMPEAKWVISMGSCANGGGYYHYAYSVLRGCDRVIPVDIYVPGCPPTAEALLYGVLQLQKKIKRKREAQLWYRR
Chain of C. elegans (N2) complex I (NADH:ubiquinone oxidoreductase) (P24887 whole entry): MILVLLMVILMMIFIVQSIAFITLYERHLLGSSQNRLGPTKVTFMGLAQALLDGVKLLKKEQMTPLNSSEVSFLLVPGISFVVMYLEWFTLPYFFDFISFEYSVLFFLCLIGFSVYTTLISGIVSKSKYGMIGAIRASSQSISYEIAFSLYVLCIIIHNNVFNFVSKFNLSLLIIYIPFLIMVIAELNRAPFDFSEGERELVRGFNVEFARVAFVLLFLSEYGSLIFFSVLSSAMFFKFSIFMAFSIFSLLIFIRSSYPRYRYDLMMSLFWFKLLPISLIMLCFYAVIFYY
Chain of C. elegans (N2) complex I (NADH:ubiquinone oxidoreductase) (Q93873 31-482): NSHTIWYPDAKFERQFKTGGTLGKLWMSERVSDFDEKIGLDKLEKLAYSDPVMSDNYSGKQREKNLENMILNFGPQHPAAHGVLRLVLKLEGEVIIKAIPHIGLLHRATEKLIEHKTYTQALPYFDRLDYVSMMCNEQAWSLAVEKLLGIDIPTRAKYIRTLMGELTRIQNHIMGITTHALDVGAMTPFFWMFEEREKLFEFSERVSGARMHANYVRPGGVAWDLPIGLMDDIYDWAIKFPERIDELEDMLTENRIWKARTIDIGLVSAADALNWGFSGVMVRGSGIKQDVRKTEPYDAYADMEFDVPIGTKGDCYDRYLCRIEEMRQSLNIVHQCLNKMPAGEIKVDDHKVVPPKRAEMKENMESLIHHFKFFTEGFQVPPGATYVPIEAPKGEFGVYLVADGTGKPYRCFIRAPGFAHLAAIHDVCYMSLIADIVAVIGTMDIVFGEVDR
In short: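 Mitochondria from liquid-cultured adults were freeze-thawed thrice before the 15-min DCIP-coupled NADH oxidation read.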

[3] = in vitro complex I dose response on C. elegans mitochondria, average of at least two biological replicates, fit in R (DRC), read-out: IC50 C. elegans complex I
[4] = wild-type (N2) mitochondria, read-out: C. elegans Complex I IC50
[5] = wild-type C. elegans mitochondria, read-out: C. elegans Complex I IC50

Question: `CC(C)Cc1ccc(C(C)c2nc3ccccc3n2C(C)C)cc1` (stereo not drawn) [STK951903] was tested. Which IC50 [1] did it give?
Answer: 14.7 µM

Question: What about the “Log IC50 B. taurus complex I” value [1] of the same compound?
Answer: 1.17 µM

Question: And the IC50 [2, 3]?
Answer: 4.2 µM

Question: What about the “Log IC50 C. elegans complex I” value [2] of the same compound?
Answer: 0.62 µM

Question: What about the IC50 [2, 4] of the same compound?
Answer: 4.2 µM

Question: And the IC50 [2, 5]?
Answer: 4.2 µM

Question: What does the source list for `CC(C)Oc1cccc(OCCn2cnc3ccccc32)c1` [Compound 7926496]?
Answer: IC50 [1]: 2.19 µM; activity at 0.0001 µM [1]: 89.9%; activity at 0.0005 µM [1]: 91.2%; activity at 0.001 µM [1]: 91.7%; activity at 0.0025 µM [1]: 85.5%; activity at 0.005 µM [1]: 94.5%; activity at 0.013 µM [1]: 90.6%; activity at 0.025 µM [1]: 91.4%; activity at 0.063 µM [1]: 86%; activity at 0.125 µM [1]: 80.2%; activity at 0.313 µM [1]: 76.3%; activity at 0.625 µM [1]: 69.4%; activity at 1.5 µM [1]: 53.2%; activity at 3 µM [1]: 36%; activity at 15 µM [1]: 9.56%; activity at 37.5 µM [1]: 1.81%; activity at 75 µM [1]: 1.89%; Log IC50 B. taurus complex I [1]: 0.34 µM; activity at 0.0001 µM [2]: 80%; activity at 0.0005 µM [2]: 92.9%; activity at 0.001 µM [2]: 87.5%; activity at 0.0025 µM [2]: 88.5%; activity at 0.005 µM [2]: 89.3%; activity at 0.013 µM [2]: 88.3%; activity at 0.025 µM [2]: 81.7%; activity at 0.063 µM [2]: 79.5%; activity at 0.125 µM [2]: 81.6%; activity at 0.313 µM [2]: 76.9%; activity at 0.625 µM [2]: 83.9%; activity at 1.5 µM [2]: 76.4%; activity at 3 µM [2]: 65%; activity at 15 µM [2]: 17.8%; activity at 37.5 µM [2]: 0.13%; activity at 75 µM [2]: 0%; IC50 [2, 3]: 6.2 µM; Log IC50 C. elegans complex I [2]: 0.79 µM; IC50 [2, 5]: 6.2 µM

Question: What does the source list for `Clc1ccc(Cn2cnc3ccccc32)c(Cl)c1` [Compound 6750659]?
Answer: IC50 ([1]; estimated from fitted dose-response curves): 2.6 µM; activity at 0.0001 µM [1]: 93.1%; activity at 0.0005 µM [1]: 93.8%; activity at 0.001 µM [1]: 91.7%; activity at 0.0025 µM [1]: 100%; activity at 0.005 µM [1]: 91.7%; activity at 0.013 µM [1]: 94.7%; activity at 0.025 µM [1]: 92.7%; activity at 0.063 µM [1]: 89.8%; activity at 0.125 µM [1]: 83.5%; activity at 0.313 µM [1]: 77.1%; activity at 0.625 µM [1]: 78.3%; activity at 1.5 µM [1]: 60.6%; activity at 3 µM [1]: 42.8%; activity at 15 µM [1]: 8.04%; activity at 37.5 µM [1]: 1.6%; activity at 75 µM [1]: 1.94%; Log IC50 B. taurus complex I [1]: 0.41 µM; activity at 0.0001 µM [2]: 89.4%; activity at 0.0005 µM [2]: 104%; activity at 0.001 µM [2]: 101%; activity at 0.0025 µM [2]: 110%; activity at 0.005 µM [2]: 103%; activity at 0.013 µM [2]: 98.1%; activity at 0.025 µM [2]: 98.4%; activity at 0.063 µM [2]: 84.8%; activity at 0.125 µM [2]: 79.5%; activity at 0.313 µM [2]: 62.1%; activity at 0.625 µM [2]: 45.6%; activity at 1.5 µM [2]: 24.9%; activity at 3 µM [2]: 16.1%; activity at 15 µM [2]: 4.66%; activity at 37.5 µM [2]: 3.82%; activity at 75 µM [2]: 5.12%; IC50 [2, 3]: 0.45 µM; Log IC50 C. elegans complex I [2]: -0.35 µM; IC50 [2, 4]: 0.45 µM; IC50 ([2]; wild-type C. elegans mitochondria, estimated from fitted dose-response curves, read-out: C. elegans Complex I IC50): 0.45 µM
